Experimental data taken from the Kinase Knowledgebase extract (Sharma et al. 2016).

Legend:
MAPK14 (human) [1] = molecular target: MAPK14 (human) (UniProt Q16539); assay: Assessment of MAPK14 Kinase Activity
MAPK14 (human) [2] = molecular target: MAPK14 (human) (UniProt Q16539); assay: Inhibition of MAPK14 Kinase Activity

Sequence of MAPK14 (human) (Q16539 whole entry, looked up): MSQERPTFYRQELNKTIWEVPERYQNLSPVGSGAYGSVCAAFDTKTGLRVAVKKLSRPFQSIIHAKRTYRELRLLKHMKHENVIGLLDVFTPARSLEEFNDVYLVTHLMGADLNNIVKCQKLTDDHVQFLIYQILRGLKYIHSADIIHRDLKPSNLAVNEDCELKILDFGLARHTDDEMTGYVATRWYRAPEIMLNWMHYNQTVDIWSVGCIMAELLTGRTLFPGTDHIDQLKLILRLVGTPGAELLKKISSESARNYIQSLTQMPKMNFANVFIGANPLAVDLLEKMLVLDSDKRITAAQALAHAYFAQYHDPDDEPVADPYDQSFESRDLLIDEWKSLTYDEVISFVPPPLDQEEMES

Row | IC50 (MAPK14 (human) [1]) [µM] | IC50 (MAPK14 (human) [2]) [µM] | Structure (SMILES)
1 | < 10 | < 10 | Cc1c(F)cc(C(=O)NC2CC2)cc1-c1ccc(C(=O)NCc2cc(C(F)(F)F)ccc2F)c[n+]1[O-]
2 |  | < 10 | Cc1c(F)cc(C(=O)NC2CC2)cc1-c1ccc(C(=O)NCc2cc(F)ccc2C(F)(F)F)c[n+]1[O-]
3 |  | < 10 | Cc1c(F)cc(C(=O)NC2CC2)cc1-c1ccc(C(=O)NCC(C)C)c[n+]1[O-]
4 |  | < 10 | Cc1c(F)cc(C(=O)NC2CC2)cc1-c1ccc(C(=O)N[C@H](C)C(C)(C)C)c[n+]1[O-]
5 | < 10 | < 10 | Cc1c(F)cc(C(=O)NC2CC2)cc1-c1ccc(C(=O)NC(C)(C)C)c[n+]1[O-]
6 |  | < 10 | Cc1cc(C)cc(CNC(=O)c2ccc(-c3cc(C(=O)NC4CC4)cc(F)c3C)[n+]([O-])c2)c1
7 | < 10 | < 10 | Cc1c(F)cc(C(=O)NC2CC2)cc1-c1ccc(C(=O)N[C@@H](C)C(C)(C)C)c[n+]1[O-]
8 | < 10 | < 10 | Cc1c(F)cc(C(=O)NC2CC2)cc1-c1ccc(C(=O)N[C@@H](C)C(C)C)c[n+]1[O-]
